Source: ChEMBL document CHEMBL5390204, “Persephacin Is a Broad-Spectrum Antifungal Aureobasidin Metabolite That Overcomes Intrinsic Resistance in Aspergillus fumigatus” (J Nat Prod, 2023)
≈ marks a conversion by molar mass, not a printed value.

What was measured:
Nakaseomyces glabratus [1] = assay: Antifungal activity against Candida glabrata 2 assessed as inhibition in fungal growth incubated for 48 hrs by microplate reader analysis; assay type: functional
Saccharomyces cerevisiae = assay: Antifungal activity against multidrug-resistant Saccharomyces cerevisiae 399 assessed as inhibition in fungal growth incubated for 48 hrs by microplate reader analysis; assay type: functional
Clavispora lusitaniae = assay: Antifungal activity against multidrug-resistant Candida lusitaniae 398 assessed as inhibition in fungal growth incubated for 48 hrs by microplate reader analysis; assay type: functional
Candida duobushaemulonii = assay: Antifungal activity against multidrug-resistant Candida duobushaemulonii 394 assessed as inhibition in fungal growth incubated for 48 hrs by microplate reader analysis; assay type: functional; details: Candidozyma duobushaemuli
[Candida] auris [2] = Antifungal activity against multidrug-resistant Candida auris 390 assessed as inhibition in fungal growth incubated for 48 hrs by microplate reader analysis; assay type: functional; details: Candidozyma auris
[Candida] auris [3] = Antifungal activity against multidrug-resistant Candida auris 389 assessed as inhibition in fungal growth incubated for 48 hrs by microplate reader analysis; assay type: functional; details: Candidozyma auris
[Candida] auris [4] = Antifungal activity against multidrug-resistant Candida auris 387 assessed as inhibition in fungal growth incubated for 48 hrs by microplate reader analysis; assay type: functional; details: Candidozyma auris
[Candida] auris [5] = Antifungal activity against multidrug-resistant Candida auris 386 assessed as inhibition in fungal growth incubated for 48 hrs by microplate reader analysis; assay type: functional; details: Candidozyma auris
[Candida] auris [6] = Antifungal activity against multidrug-resistant Candida auris 385 assessed as inhibition in fungal growth incubated for 48 hrs by microplate reader analysis; assay type: functional; details: Candidozyma auris
[Candida] auris [7] = Antifungal activity against multidrug-resistant Candida auris 384 assessed as inhibition in fungal growth incubated for 48 hrs by microplate reader analysis; assay type: functional; details: Candidozyma auris
[Candida] auris [8] = Antifungal activity against multidrug-resistant Candida auris 382 assessed as inhibition in fungal growth incubated for 48 hrs by microplate reader analysis; assay type: functional; details: Candidozyma auris
[Candida] auris [9] = Antifungal activity against multidrug-resistant Candida auris 381 assessed as inhibition in fungal growth incubated for 48 hrs by microplate reader analysis; assay type: functional; details: Candidozyma auris
Pichia kudriavzevii [10] = assay: Antifungal activity against Candida krusei 25 assessed as inhibition in fungal growth incubated for 48 hrs by microplate reader analysis; assay type: functional
Kluyveromyces marxianus = assay: Antifungal activity against Candida kefyr 12 assessed as inhibition in fungal growth incubated for 48 hrs by microplate reader analysis; assay type: functional
Candida albicans [11] = assay: Antifungal activity against Candida albicans ATCC 10231 assessed as reduction in fungal growth incubated for 48 hrs by microplate reader analysis; assay type: functional
Candida albicans [12] = assay: Antifungal activity against Candida albicans SC5314 assessed as reduction in fungal growth incubated for 48 hrs by microplate reader analysis; assay type: functional
Pichia kudriavzevii [13] = assay: Antifungal activity against Candida krusei ATCC 6258 (Y-7179) assessed as reduction in fungal growth incubated for 48 hrs by microplate reader analysis; assay type: functional
Candida albicans [14] = assay: Antifungal activity against Candida albicans 1 assessed as inhibition in fungal growth incubated for 48 hrs by microplate reader analysis; assay type: functional
Candida albicans [15] = assay: Antifungal activity against Candida albicans 14 assessed as inhibition in fungal growth incubated for 48 hrs by microplate reader analysis; assay type: functional
Candida albicans [16] = assay: Antifungal activity against Candida albicans 21 assessed as inhibition in fungal growth incubated for 48 hrs by microplate reader analysis; assay type: functional
Candida albicans [17] = assay: Antifungal activity against Candida albicans 24 assessed as inhibition in fungal growth incubated for 48 hrs by microplate reader analysis; assay type: functional
Nakaseomyces glabratus [18] = assay: Antifungal activity against Candida glabrata 16 assessed as inhibition in fungal growth incubated for 48 hrs by microplate reader analysis; assay type: functional
Nakaseomyces glabratus [19] = assay: Antifungal activity against Candida glabrata 17 assessed as inhibition in fungal growth incubated for 48 hrs by microplate reader analysis; assay type: functional
Nakaseomyces glabratus [20] = assay: Antifungal activity against Candida glabrata 22 assessed as inhibition in fungal growth incubated for 48 hrs by microplate reader analysis; assay type: functional
Candida parapsilosis = assay: Antifungal activity against Candida parapsilosis 23 assessed as inhibition in fungal growth incubated for 48 hrs by microplate reader analysis; assay type: functional; details: Lodderomyces parapsilosis
Cryptococcus neoformans [21] = assay: Antifungal activity against Cryptococcus neoformans H99 assessed as reduction in fungal growth incubated for 48 hrs by microplate reader analysis; assay type: functional
Aspergillus fumigatus [22] = assay: Antifungal activity against Aspergillus fumigatus MYA 3627 assessed as reduction in fungal growth incubated for 48 hrs by microplate reader analysis; assay type: functional
Aspergillus fumigatus [23] = assay: Antifungal activity against Aspergillus fumigatus NRRL6113 assessed as reduction in fungal growth incubated for 48 hrs by microplate reader analysis; assay type: functional
Aspergillus fumigatus [24] = assay: Antifungal activity against Aspergillus fumigatus NRRL5109 assessed as reduction in fungal growth incubated for 48 hrs by microplate reader analysis; assay type: functional
Aspergillus terreus [25] = assay: Antifungal activity against Aspergillus terreus 191A6 assessed as reduction in fungal growth incubated for 48 hrs by microplate reader analysis; assay type: functional
Hamigera insecticola [26] = assay: Antifungal activity against Hamigera insecticola NRRL35442 assessed as reduction in fungal growth incubated for 48 hrs by microplate reader analysis; assay type: functional
[Candida] auris [27] = Antifungal activity against multidrug-resistant Candida auris 381 assessed as inhibition in fungal growth incubated for 48 hrs in presence of 0% serum by microplate reader analysis; assay type: functional; details: Candidozyma auris
[Candida] auris [28] = Antifungal activity against multidrug-resistant Candida auris 381 assessed as inhibition in fungal growth incubated for 48 hrs in presence of 5% serum by microplate reader analysis; assay type: functional; details: Candidozyma auris
Cryptococcus neoformans [29] = assay: Antifungal activity against Cryptococcus neoformans H99 assessed as inhibition in fungal growth incubated for 48 hrs in presence of 5% serum by microplate reader analysis; assay type: functional
Cryptococcus neoformans [30] = assay: Antifungal activity against Cryptococcus neoformans H99 assessed as inhibition in fungal growth incubated for 48 hrs in presence of 10% serum by microplate reader analysis; assay type: functional
Aspergillus fumigatus [31] = assay: Antifungal activity against Aspergillus fumigatus ATCC MYA-3627 assessed as inhibition in fungal growth incubated for 48 hrs in presence of 0% serum by microplate reader analysis; assay type: functional
Candida albicans [32] = assay: Antifungal activity against Candida albicans ATCC 10231 assessed as reduction in fungal viability incubated for 48 hrs by microplate reader analysis; assay type: functional
Candida tropicalis = assay: Antifungal activity against Candida tropicalis ATCC750 (Y-12699) assessed as reduction in fungal viability incubated for 48 hrs by microplate reader analysis; assay type: functional
Pichia kudriavzevii [33] = assay: Antifungal activity against Candida krusei ATCC 6258 (Y-7179) assessed as reduction in fungal viability incubated for 48 hrs by microplate reader analysis; assay type: functional
Aspergillus fumigatus [34] = assay: Antifungal activity against Aspergillus fumigatus MYA 3627 assessed as reduction in fungal viability incubated for 48 hrs by microplate reader analysis; assay type: functional
Aspergillus terreus [35] = assay: Antifungal activity against Aspergillus terreus 191A6 assessed as reduction in fungal viability incubated for 48 hrs by microplate reader analysis; assay type: functional
Rhizopus arrhizus = assay: Antifungal activity against Rhizopus oryzae FGSC 9543 assessed as reduction in fungal viability incubated for 48 hrs by microplate reader analysis; assay type: functional
Paecilomyces lilacinus = assay: Antifungal activity against Paecilomyces lilacinus 165E10 assessed as reduction in fungal viability incubated for 48 hrs by microplate reader analysis; assay type: functional, Purpureocillium lilacinum
Hamigera insecticola [36] = assay: Antifungal activity against Hamigera insecticola NRRL35442 assessed as reduction in fungal viability incubated for 48 hrs by microplate reader analysis; assay type: functional

## C[C@@H]1[C@H](O)[C@@H](C)/C=C/C=C/C=C/C=C/C=C/C=C/C=C/[C@H](O[C@@H]2O[C@H](C)[C@@H](O)[C@H](N)[C@@H]2O)C[C@@H]2O[C@](O)(C[C@@H](O)C[C@@H](O)[C@H](O)CC[C@@H](O)C[C@@H](O)CC(=O)O[C@H]1C)C[C@H](O)[C@H]2C(=O)O [AMPHOTERICIN B]
Nakaseomyces glabratus [1]
  MIC80: 0.3 µM (≈ 0.277 µg/mL)
Saccharomyces cerevisiae
  MIC80: 2.5 µM (≈ 2.31 µg/mL)
Clavispora lusitaniae
  MIC80: 0.6 µM (≈ 0.554 µg/mL)
Candida duobushaemulonii
  MIC80: 5 µM (≈ 4.62 µg/mL)
[Candida] auris [2]
  MIC80: 2.5 µM (≈ 2.31 µg/mL)
[Candida] auris [3]
  MIC80: 5 µM (≈ 4.62 µg/mL)
[Candida] auris [4]
  MIC80: 2.5 µM (≈ 2.31 µg/mL)
[Candida] auris [5]
  MIC80: 2.5 µM (≈ 2.31 µg/mL)
[Candida] auris [6]
  MIC80: 2.5 µM (≈ 2.31 µg/mL)
[Candida] auris [7]
  MIC80: 2.5 µM (≈ 2.31 µg/mL)
[Candida] auris [8]
  MIC80: 1.3 µM (≈ 1.2 µg/mL)
[Candida] auris [9]
  MIC80: 1.3 µM (≈ 1.2 µg/mL)
Pichia kudriavzevii [10]
  MIC80: 1.3 µM (≈ 1.2 µg/mL)
Kluyveromyces marxianus
  MIC80: 0.3 µM (≈ 0.277 µg/mL)
Candida albicans [11]
  MFC: 2.5 µM (≈ 2.31 µg/mL)
  MIC80: 0.6 µM (≈ 0.554 µg/mL)
Candida albicans [12]
  MFC: 2.5 µM (≈ 2.31 µg/mL)
  MIC80: 0.6 µM (≈ 0.554 µg/mL)
Pichia kudriavzevii [13]
  MFC: 5 µM (≈ 4.62 µg/mL)
  MIC80: 2.5 µM (≈ 2.31 µg/mL)
Candida albicans [14]
  MIC80: 0.6 µM (≈ 0.554 µg/mL)
Candida albicans [15]
  MIC80: 1.3 µM (≈ 1.2 µg/mL)
Candida albicans [16]
  MIC80: 0.6 µM (≈ 0.554 µg/mL)
Candida albicans [17]
  MIC80: 1.3 µM (≈ 1.2 µg/mL)
Nakaseomyces glabratus [18]
  MIC80: 0.2 µM (≈ 0.185 µg/mL)
Nakaseomyces glabratus [19]
  MIC80: 0.3 µM (≈ 0.277 µg/mL)
Nakaseomyces glabratus [20]
  MIC80: 0.3 µM (≈ 0.277 µg/mL)
Candida parapsilosis
  MIC80: 1.3 µM (≈ 1.2 µg/mL)
Cryptococcus neoformans [21]
  MFC: 2.5 µM (≈ 2.31 µg/mL)
  MIC80: 1.3 µM (≈ 1.2 µg/mL)
Aspergillus fumigatus [22]
  MFC: 2.5 µM (≈ 2.31 µg/mL)
  MIC80: 2.5 µM (≈ 2.31 µg/mL)
Aspergillus fumigatus [23]
  MFC: 10 µM (≈ 9.24 µg/mL)
  MIC80: 2.5 µM (≈ 2.31 µg/mL)
Aspergillus fumigatus [24]
  MFC: 5 µM (≈ 4.62 µg/mL)
  MIC80: 2.5 µM (≈ 2.31 µg/mL)
Aspergillus terreus [25]
  MFC: 10 µM (≈ 9.24 µg/mL)
  MIC80: 2.5 µM (≈ 2.31 µg/mL)
Hamigera insecticola [26]
  MFC: 10 µM (≈ 9.24 µg/mL)
  MIC80: 2.5 µM (≈ 2.31 µg/mL)
[Candida] auris [27]
  MIC80: 2.5 µM
[Candida] auris [28]
  MIC80: < 0.2 µM
Cryptococcus neoformans [29]
  MIC80: < 0.2 µM
Cryptococcus neoformans [30]
  MIC80: < 0.2 µM
Aspergillus fumigatus [31]
  MIC80: 2.5 µM
Candida albicans [32]
  MFC<=99.9: 2.5 µM (≈ 2.31 µg/mL)
Candida tropicalis
  MFC<=99.9: 2.5 µM (≈ 2.31 µg/mL)
Pichia kudriavzevii [33]
  MFC<=99.9: 5 µM (≈ 4.62 µg/mL)
Aspergillus fumigatus [34]
  MFC<=99.9: 2.5 µM (≈ 2.31 µg/mL)
Aspergillus terreus [35]
  MFC<=99.9: 10 µM (≈ 9.24 µg/mL)
Rhizopus arrhizus
  MFC<=99.9: 0.3 µM (≈ 0.277 µg/mL)
Paecilomyces lilacinus
  MFC<=99.9: >10 µM
Hamigera insecticola [36]
  MFC<=99.9: 10 µM (≈ 9.24 µg/mL)
